According to PubChem BioAssay (NCI):
Values joined by “and” are separate entries in the source; they are usually repeats but may differ in a detail not shown here. Identical values can stand only once.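 Grown in 96-well plates, cells were treated for 48 hours with each compound at five concentrations. Insufficient inhibition: endpoint recorded as highest concentration tested. Here, GI50 denotes the concentration required for 50% inhibition of growth. The concentration for full growth arrest is given as TGI.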

Key:
Assay in all cases: NCI-60 cell line screen, 48 h
786-0 renal = tested on: 786-0 renal
MDA-MB-231 breast = tested on: MDA-MB-231 breast
HS 578T breast = tested on: HS 578T breast
NCI-H23 lung = tested on: NCI-H23 lung
MOLT-4 leukemia = tested on: MOLT-4 leukemia
DU-145 prostate = tested on: DU-145 prostate
CCRF-CEM leukemia = tested on: CCRF-CEM leukemia
OVCAR-3 ovarian = tested on: OVCAR-3 ovarian
IGROV1 ovarian = tested on: IGROV1 ovarian
TK-10 renal = tested on: TK-10 renal

Row | Structure (SMILES) | GI50 (786-0 renal) | TGI (786-0 renal) | GI50 (MDA-MB-231 breast) | TGI (MDA-MB-231 breast) | GI50 (HS 578T breast) | TGI (HS 578T breast) | GI50 (NCI-H23 lung) | TGI (NCI-H23 lung) | GI50 (MOLT-4 leukemia) | TGI (MOLT-4 leukemia) | GI50 (DU-145 prostate) | TGI (DU-145 prostate) | GI50 (CCRF-CEM leukemia) | TGI (CCRF-CEM leukemia) | GI50 (OVCAR-3 ovarian) | TGI (OVCAR-3 ovarian) | GI50 (IGROV1 ovarian) | TGI (IGROV1 ovarian) | GI50 (TK-10 renal) | TGI (TK-10 renal)
1 | C#C[C@@]1(O)[C@@H](CO)O[C@@H](n2ccc3c(N)ncnc32)[C@@H]1O | 1.63 µM | 6.15 µM | 1.53 µM | 5.89 µM | 4.67 µM | > 100 µM | 1.18 µM | 4.32 µM | 0.614 µM | > 100 µM | 0.563 µM | 6.56 µM | 2.3 µM | > 100 µM | 2.96 µM | 12 µM | 1.43 µM | 5.85 µM | 2.65 µM | 9.48 µM
2 | C/C1=C\C/C=C(\C)[C@H]2CC(CC/C(C)=C/CC1)[C@@](C)(CO)O2 | > 100 µM | > 100 µM | 54.9 µM | > 100 µM | > 100 µM | > 100 µM | > 100 µM | > 100 µM | 23.5 µM | > 100 µM | > 100 µM | > 100 µM | 72.8 µM | > 100 µM | > 100 µM | > 100 µM | 16 µM | 56.5 µM |  | 
3 | COc1cc2nc(N3CCCC3)nc(Nc3ccccc3)c2cc1OC | 1.71 µM | 3.53 µM | 1.56 µM | 3.11 µM | 1.97 µM | 4.45 µM | 1.93 µM | 3.76 µM | 1.54 µM | 4.33 µM | 1.62 µM | 3.07 µM | 0.329 µM | 3.09 µM | 1.8 µM | 3.3 µM | 1.38 µM | 2.84 µM | 1.88 µM | 3.37 µM
4 | Cc1ccc(N=Nc2c(N)nn(-c3ccccc3)c2N)cc1 | 0.755 µM |  | 7.41 µM | > 100 µM | 1.94 µM | > 31.4 µM | 2.29 µM |  | 1.07 µM | > 100 µM | 3.44 µM | > 100 µM | 2.06 µM |  | 0.705 µM | 3.58 µM | 4.5 µM | > 100 µM |  | > 100 µM
5 | CCCCCCCCCCCC[n+]1ccccc1 | 1.48 µM | 3.42 µM | 1.34 µM | 3.4 µM | 1.87 µM | 5.87 µM | 0.488 µM | 5.67 µM | 1.17 µM | 3.66 µM | 2.21 µM | 11.6 µM | 1.34 µM | 8.55 µM | 0.835 µM | 2.88 µM | 1 µM | 2.85 µM | 0.941 µM | 2.67 µM
6 | C[C@H]1[C@H](C)CC[C@]2(C(=O)O)CC[C@]3(C)C(=CC[C@@H]4[C@@]5(C)CC[C@H](OC(=O)/C=C/c6ccc(O)cc6)C(C)(C)[C@@H]5CC[C@]43C)[C@H]12 | 3.57 µM | 9.53 µM | 5.1 µM | 18.3 µM | 2.81 µM | 8.8 µM | 3.11 µM | 8.36 µM | 4.42 µM | 49.7 µM | 2.32 µM | 13 µM | 5 µM | > 40.4 µM | 12.5 µM | 39.2 µM | 8.39 µM | 45.8 µM | 3.01 µM | 17.5 µM
7 | CC1(C)CC(OCCCC[P+](c2ccccc2)(c2ccccc2)c2ccccc2)CC(C)(C)N1O | 0.738 µM | 2.23 µM | 0.252 µM | 0.832 µM | 0.229 µM | 1.03 µM | 0.254 µM | 1.95 µM | 0.34 µM | 4.12 µM | 0.409 µM | 7.75 µM | 0.246 µM | 1.52 µM | 0.241 µM | 0.871 µM | 0.477 µM | 2.02 µM | 0.361 µM | 2.36 µM
8 | Nc1ncnc2c(C3OC(CO)C(O)C3O)[nH]nc12 (stereo unspecified) | 0.0544 µM | 5.65 µM | 0.0218 µM | 0.0705 µM | 0.533 µM | 5.34 µM | 0.659 µM | 10.5 µM and 16.4 µM | 3.59 µM and 2.01 µM | 38.3 µM | 0.0125 µM | 0.278 µM | 4.68 µM and 2.77 µM | 73.9 µM | 0.168 µM and 0.071 µM | 1.79 µM and 0.377 µM |  | 8.6 µM | 0.0778 µM | 2.48 µM
9 | O=C(Nc1ccccc1)NS(=O)(=O)c1ccc(N2N=C3c4ccccc4CC3C2c2ccccn2)cc1 (stereo unspecified) | 35.5 µM | > 100 µM | 19.8 µM | 60.8 µM | 40.7 µM | > 100 µM | 20.8 µM | 52.2 µM | 11.6 µM | > 100 µM | 36.2 µM | > 100 µM | 40.9 µM | > 100 µM | 21.6 µM | 74.4 µM | 16.2 µM | 80.5 µM | 11.7 µM | 45.6 µM
10 | Cc1ncc(C(=O)Nc2ccc(CN3CCN(C)CC3)c(C(F)(F)F)c2)cc1C#Cc1cnc(N)c2ncccc12 | 0.508 µM | 2.88 µM | 0.0801 µM | 1.18 µM | 0.23 µM | 4.69 µM | 0.841 µM | 3.3 µM | 0.0946 µM |  | 0.18 µM | 2.08 µM | 0.558 µM | > 20.6 µM | 1.32 µM | 4.96 µM |  |  | 0.318 µM | 2.13 µM
11 | O=C1OC(C2=CC(=O)c3ccccc3C2=O)C(Cl)=C1Cl (stereo unspecified) |  | 43.2 µM |  | 36 µM |  | > 100 µM |  | 59.4 µM |  | > 100 µM |  | > 100 µM |  | 50.9 µM |  | > 100 µM |  |  |  | > 100 µM
12 | OCCNc1ncnc2c1ncn2C1OC(CO)C(O)C1O (stereo unspecified) |  | > 100 µM |  | 89.4 µM |  | > 100 µM |  | > 100 µM |  |  |  | 67.7 µM |  | > 100 µM |  | > 100 µM |  | > 100 µM |  | > 100 µM
13 | CC[C@H](C)[C@H](NC(=O)Nc1ccccc1)C(=O)N(C)[C@H](C[C@@H](OC(C)=O)c1nc(C(=O)N[C@@H](Cc2ccccc2)C[C@H](C)C(=O)OC)cs1)C(C)C | 3.56 µM | > 100 µM | 3.36 µM | 22.1 µM | 2.47 µM | 8.73 µM | 5.8 µM | > 100 µM |  |  | 3.94 µM | > 100 µM | 2.25 µM | > 100 µM | 2.32 µM | 5.96 µM | 3.28 µM | > 100 µM | 9.56 µM | > 100 µM
